Measurements published in article PMC8360279, “Combination of Polygoni Multiflori Radix Praeparata and Acori Tatarinowii Rhizoma Alleviates Learning and Memory Impairment in Scopolamine-Treated Mice by Regulating Synaptic-Related Proteins” (Frontiers in Pharmacology, 2021).
Counter-ions that a name gives are not always drawn.

What was measured:
[1] = system: neurotransmitter levels in the cerebral cortex of scopolamine-treated mice; experiment: HPLC-MS analysis of neurotransmitter content in mouse cortical tissue; type: in vivo, Kunming mice; conditions: scopolamine injection 4 mg/kg i.p. vs control mice
scopolamine-treated mice = experiment: Morris water maze test in scopolamine-treated mice; conditions: scopolamine 4 mg/kg i.p. (dementia model); starting from day 3; p < 0.001
Protocol: The mice were randomly divided into the following eight groups (n = 12 per group): 1) control (normal feeding); 2) model [scopolamine, 4 mg kg^−1⋅day^−1 by intraperitoneal injection (i.p.)]; 3) PAL [scopolamine, 4 mg kg^−1⋅day^−1 i. p. + PA, 1.56 g kg^−1⋅day^−1 by intragastric administration (i.g.)]; 4) PAH (scopolamine, 4 mg kg^−1⋅day^−1 i. p. + PA, 6.24 g kg^−1⋅day^−1 i. g.); 5) PL (scopolamine, 4 mg kg^−1⋅day^−1 i. p. + PMRP, 0.78 g kg^−1⋅day^−1 i. g.); 6) PH (scopolamine, 4 mg kg^−1⋅day^−1 i. p. + PMRP 3.12 g kg^−1⋅day^−1 i. g.); 7) AL (scopolamine, 4 mg kg^−1⋅day^−1 i. p.+ ATR, 0.78 g kg^−1⋅day^−1 i. g.); and 8) AH (scopolamine, 4 mg kg^−1⋅day^−1 i. p. + ATR, 3.12 g kg^−1⋅day^−1 i. g.). Mice in each group were orally administered PA, PMRP, or ATR every day for 30 days; after the last gavage, scopolamine was intraperitoneally injected and the Morris water maze experiment was conducted 40 min later for 6 days.
Spatial memory was assessed with the Morris water maze test as previously described [Lan et al. (2012)], with slight modifications. […] Each mouse was tested twice a day for 5 days and the latency to reach the platform was recorded. […] The time that the mouse spent in the target quadrant (ie, where the platform was previously hidden) and the number of times it crossed the platform were measured. […]

[2] = system: BDNF, TrkB, ERK, p-ERK, CREB, and p-CREB proteins in the hippocampus; experiment: Western blot of BDNF/TrkB/ERK/CREB signaling axis components in the hippocampus; conditions: scopolamine treatment vs control mice
Protocol: The mice were randomly divided into the following eight groups (n = 12 per group): 1) control (normal feeding); 2) model [scopolamine, 4 mg kg^−1⋅day^−1 by intraperitoneal injection (i.p.)]; 3) PAL [scopolamine, 4 mg kg^−1⋅day^−1 i. p. + PA, 1.56 g kg^−1⋅day^−1 by intragastric administration (i.g.)]; 4) PAH (scopolamine, 4 mg kg^−1⋅day^−1 i. p. + PA, 6.24 g kg^−1⋅day^−1 i. g.); 5) PL (scopolamine, 4 mg kg^−1⋅day^−1 i. p. + PMRP, 0.78 g kg^−1⋅day^−1 i. g.); 6) PH (scopolamine, 4 mg kg^−1⋅day^−1 i. p. + PMRP 3.12 g kg^−1⋅day^−1 i. g.); 7) AL (scopolamine, 4 mg kg^−1⋅day^−1 i. p.+ ATR, 0.78 g kg^−1⋅day^−1 i. g.); and 8) AH (scopolamine, 4 mg kg^−1⋅day^−1 i. p. + ATR, 3.12 g kg^−1⋅day^−1 i. g.). […]
Three mice per group were deeply anesthetized with chloral hydrate (320 mg/kg i. p.) 60 min after the behavioral test and perfused through the ascending aorta with PBS. […] The hippocampus tissue was lysed in radioimmunoprecipitation assay buffer containing protease and phosphatase inhibitors; the protein concentration of the lysate was determined with the Bradford assay. […] After three washes with washing buffer and incubation with secondary antibody (1:3,000) for 2 h, protein bands were detected with SuperSignal West Pico Chemiluminescent Substrate (Solarbio, Beijing, China) and the signal intensity of target protein bands was normalized to that of the loading control (actin).

[3] = system: P90RSK and PSD95 in the hippocampus; experiment: Immunohistochemistry of P90RSK and PSD95 in the hippocampus; type: in vivo, Kunming mice; conditions: scopolamine vs control mice
Protocol: The brain was removed and immediately fixed in 4% paraformaldehyde in PBS. […] After quenching endogenous peroxidase and blocking with normal goat serum, the sections were incubated overnight at 4°C with antibodies against P90RSK and PSD95 (both at 1:5,000). The sections were washed with PBS and incubated with secondary antibodies for 2 h at 37°C, and then stained with 3,3′-diaminobenzidine in chromogen solution; they were then counterstained with hematoxylin, dehydrated in ethanol, cleared in xylene, and mounted with Cytoseal (Thermo Fisher Scientific). P90RSK and PSD95 immunoreactivity was measured using Image Pro Plus v6.0 software (Media Cybernetics, Rockville, MD, United States). Brown staining on the cell membrane or in the cytoplasm was represented positive staining, with the staining intensity reflecting the expression levels of P90RSK and PSD95 proteins.

[4] = Pharmacokinetics in rat plasma after oral administration of PA, PMRP or ATR (HPLC-MS and GC-MS); conditions: for Tmax: rat plasma, mean ± S.D., n = 6; for Plasma concentration after oral PA compared to the level after PMRP or ATR: rats, PA 4.32 g/kg vs PMRP or ATR 2.16 g/kg
Protocol: (§1) Additionally, 18 rats were orally administered PA, PMRP, or ATR once, respectively (6 rats in each group). The doses were 4.32 g/kg for PA, 2.16 g/kg for PMRP or ATR. The whole blood samples were collected at different time points.
(§2) The components of PA were analyzed by HPLC-MS. The samples were separated on a ZORBAX StableBond C18 reversed-phase column (2.1 × 50 mm, 1.8 μm) (Agilent Technologies Co., CA, United States). The autosampler was set at 20 C, and gradient elution was performed with 0.1% formic acid as solvent A and acetonitrile as solvent B. The gradient program was as follows: 0–10 min, 88%–40% A; 10–12 min, 40%–1% A; and 12–15 min, 1% A. The flow rate was set at 0.3 ml min^−1, and the injection volume was 4 μL. The total run time was 15 min for each sample.
(§3) GC-MS analysis was conducted on a 7890A series gas chromatograph coupled to a Model 7,693 autosampler and Model 5975C Inert XL EI MSD with Triple-Axis Detector (Thermo Fisher Scientific). The carrier gas was 99.99% high-purity helium at a flow rate of 1.2 ml/min. Samples were separated on a TG-5MS column (60 × 0.25 mm and 0.25 μm film thickness). The sample volume was 1 μL with a split ratio of 5:1. The oven temperature program was initially set at 100°C for 1 min, then ramped at 10°C/min to 180°C and held for 1 min; ramped at 5°C/min to 210°C and held for 1 min; and ramped at 10°C/min to 260°C and held for 5 min. The total run time was 27 min. The injection port and detector temperatures were 280°C and 300°C, respectively. Electrospray ionization was performed at 70 eV. Selective ion monitoring was set for quantitation with a dwell time of 100 m/ion.
(§4) Male rats (n = 18) were fasted but had free access to water for 12 h prior to administration of PA, PMRP, and ATR (6 rats in each group). Blood samples were collected from the posterior orbital venous plexus of rats before dosing (time 0) and 5, 10, and 30 min and 1, 2, 4, 8, 16, and 24 h after dosing. The samples were immediately centrifuged at 4,500 rpm for 10 min and the separated plasma samples were stored at −80°C until analysis.

[5] = Chen et al., cited from earlier work
in vivo = conditions: male, Sprague-Dawley, rat, po; for Tmax: rat plasma, mean ± S.D., n = 6
Protocol: as §1, §2, §3, §4

ERK1/2/Nrf2/HO-1 pathway = system: ERK1/2/Nrf2/HO-1 pathway; set-up: method as in Lai et al. (2020); conditions: by modulating the ERK1/2/Nrf2/HO-1 pathway; ref Lai et al. (2020); cited from earlier work
[6] = male, Sprague-Dawley, rat, in vivo, po, 4.32 g/kg
Protocol: as §1, §2, §3, §4

[7] = male, Sprague-Dawley, rat, plasma, po, 2.16 g/kg
[8] = male, Sprague-Dawley, rat, plasma, po, 4.32 g/kg
[9] = male, Sprague-Dawley, rat, plasma, po, 4.32 g/kg, Tmax, oral PA extract 4.32 g/kg once
[10] = oral ATR extract 2.16 g/kg once
[11] = 4.32 g/kg, oral PA extract 4.32 g/kg once
[12] = male, Sprague-Dawley, rat, plasma, po, 2.16 g/kg, Tmax, oral ATR extract 2.16 g/kg once
[13] = oral PMRP extract 2.16 g/kg once
[14] = 2.16 g/kg, oral PMRP extract 2.16 g/kg once

Cmax [4, 8]	Compound	AUC(0-inf) [4, 7]	AUC(0-t) [4, 7]	Cmax [4, 7]	half-life [4, 7]	AUC(0-inf) [4, 8]	AUC(0-t) [4, 8]	half-life [4, 8]	Tmax [4, 9]	Plasma concentration after oral PA compared to the level after PMRP or ATR [4]	Tmax [4, 10]	Tmax ([4]; oral PA extract 4.32 g/kg once)	AUC(0-inf) (in vivo; 2.16 g/kg)	AUC(0-t) (in vivo; 2.16 g/kg)	Cmax (in vivo; 2.16 g/kg)	half-life (in vivo; 2.16 g/kg)	AUC(0-inf) (in vivo; 4.32 g/kg)	AUC(0-t) (in vivo; 4.32 g/kg)	Cmax (in vivo; 4.32 g/kg)	Tmax (in vivo; [11])	further results
	CN1[C@@H]2C[C@@H](OC(=O)[C@H](CO)c3ccccc3)C[C@H]1[C@@H]1O[C@@H]12 [Scopolamine, Scopolamine Hydrobromide]																				Concentrations of ACh, 5-HT, NE, Epi, Glu and GABA in the cortex [1]: reduced; Time to find the platform vs controls (scopolamine-treated mice): significantly longer; Levels of BDNF, TrkB, ERK, p-ERK, CREB and p-CREB proteins in the hippocampus [2]: reduced; Immunoreactivity of P90RSK and PSD95 in the hippocampus [3]: reduced
708 ± 281 ng/mL	OCC1OC(Oc2c(O)cc(O)cc2C=Cc2ccc(O)cc2)C(O)C(O)C1O [THSG, 2,3,5,4′-Tetrahydroxystilbene-2-O-β-D-glucoside]	102 ± 49.7 ng·h/mL	102 ± 49.4 ng·h/mL	147 ± 105 ng/mL	0.17 ± 0.136 h	1630 ng·h/mL	1520 ng·h/mL	3.01 ± 3.36 h	0.81 h	increased											Tmax ([4]; male, Sprague-Dawley, rat, plasma, po, 2.16 g/kg, Tmax, oral PMRP extract 2.16 g/kg once): 0.39 h; Tmax ([4]; oral PA extract 4.32 g/kg once, listed as 2,3,5,4′-Tetrahydroxystilbene-2-O-β-glucoside): 0.806 ± 0.695 h; Tmax ([4]; oral PMRP extract 2.16 g/kg once, listed as 2,3,5,4′-Tetrahydroxystilbene-2-O-β-glucoside): 0.389 ± 0.356 h; Effect on memory ([5]; by modulating ERK1/2 and CREB activation and increasing BDNF and PSD95 levels, ref Hou et al., 2011, Wang et al., Zhou et al., 2012, Shen et al., 2015, 2016): enhanced memory
	COc1cc(OC)c(OC)cc1C=O [asarylaldehyde]									increased	2.208 ± 3.217 h	0.431 ± 0.442 h	1550 ng·h/mL	1440 ng·h/mL	119 ± 52.2 ng/mL	7.18 ± 1.23 h	1970 ± 766 ng·h/mL	1710 ± 503 ng·h/mL	200 ± 45 ng/mL	0.43 h	Tmax (in vivo; 2.16 g/kg, oral ATR extract 2.16 g/kg once): 2.21 h; half-life (in vivo; 4.32 g/kg): 7.38 ± 2.94 h
24.1 ± 4.99 ng/mL	C/C=C/c1ccc(OC)c(OC)c1 [cis-methyl isoeugenol]	123 ± 30 ng·h/mL	93.8 ± 20.4 ng·h/mL	19.4 ± 18.8 ng/mL	7.49 ± 2.55 h	129 ± 45.5 ng·h/mL	118 ± 45.2 ng·h/mL	8.1 ± 2.69 h	1.58 h	similar	3.514 ± 3.753 h	1.583 ± 3.163 h									Tmax [4, 12]: 3.51 h
	Cc1cc(O)c2c(c1)C(=O)c1cc(O)cc(O)c1C2=O [emodin]											0.472 ± 0.748 h	7400 ng·h/mL	847 ± 802 ng·h/mL	370 ± 288 ng/mL	3.7 ± 6.83 h	4160 ng·h/mL	1810 ± 934 ng·h/mL	363 ± 122 ng/mL	0.47 h	Tmax [4, 13]: 2.764 ± 4.056 h; Effect on synaptic impairment (ERK1/2/Nrf2/HO-1 pathway): protected against synaptic impairment; Tmax (in vivo; [14]): 2.76 h; half-life (in vivo; 4.32 g/kg): 14 ± 11.8 h
	O=C(O)c1cc(O)c(O)c(O)c1 [gallic acid]									similar		0.444 ± 0.763 h	2700 ng·h/mL	2460 ng·h/mL	216 ± 47.9 ng/mL	6.98 ± 2.15 h	1530 ng·h/mL	831 ± 497 ng·h/mL	246 ± 244 ng/mL	0.44 h	Tmax [4, 13]: 0.694 ± 0.356 h; T1/2 [6]: 19.532 ± 13.369 h; Tmax (in vivo; [14]): 0.69 h
	C/C=C\c1cc(OC)c(OC)cc1OC [β-asarone]	1050 ng·h/mL	603 ± 281 ng·h/mL	49.8 ± 16 ng/mL	10.7 ± 6.94 h	744 ± 620 ng·h/mL	439 ± 209 ng·h/mL	14 ± 14.8 h	0.35 h	similar	4.778 ± 3.777 h	0.347 ± 0.351 h									Tmax [4, 12]: 4.78 h

Compound	Cmax [4, 8]	AUC(0-inf) [4, 7]	AUC(0-t) [4, 7]	Cmax [4, 7]	half-life [4, 7]	AUC(0-inf) [4, 8]	AUC(0-t) [4, 8]	half-life [4, 8]	Tmax [4, 9]	Plasma concentration after oral PA compared to the level after PMRP or ATR [4]	Tmax [4, 10]	Tmax ([4]; oral PA extract 4.32 g/kg once)	AUC(0-inf) (in vivo; 2.16 g/kg)	AUC(0-t) (in vivo; 2.16 g/kg)	Cmax (in vivo; 2.16 g/kg)	half-life (in vivo; 2.16 g/kg)	AUC(0-inf) (in vivo; 4.32 g/kg)	AUC(0-t) (in vivo; 4.32 g/kg)	Cmax (in vivo; 4.32 g/kg)	Tmax (in vivo; [11])	further results
C/C=C/c1cc(OC)c(OC)cc1OC [α-asarone]	101 ± 30.3 ng/mL	1040 ng·h/mL	600 ± 360 ng·h/mL	73.5 ± 25.9 ng/mL	11.8 ± 12.6 h	1240 ng·h/mL	1020 ng·h/mL	8.26 ± 2.7 h	0.88 h	increased	3.542 ± 3.736 h	0.875 ± 0.699 h									Tmax [4, 12]: 3.54 h; Effect on learning and memory deficits ([5]; ref Limón et al., 2009, Shin et al., 2014, Li et al., 2019, 2020): improved learning and memory deficits
